Data: patent US20220273637A1, “NOVEL PFAR-INHIBITING COMPOUNDS” (UNIVERSITE DE BRETAGNE OCCIDENTALE (UBO), priority 2019, published 2022)

The compounds below were run on PABPN1 aggregates (assay: not given). Conditions: not given.
Assay type: cell-based, murine
For `CN(C)C(=O)C(CCN1CCC(O)(c2ccc(Cl)cc2)CC1)(c1ccccc1)c1ccccc1` [loperamide], the “nuclei having aggregates of the PABPN1 protein” value (shortened to “nuclei having aggregates”) was “reduce the amount of muscle cell nuclei containing PABPN1 aggregates”.
`CN1CCCC(n2nc(Cc3ccc(Cl)cc3)c3ccccc3c2=O)CC1` (centres unmarked) [azelastine] was tested, and the “nuclei having aggregates” value was “reduce the amount of muscle cell nuclei containing PABPN1 aggregates”.
In the case of `CN1C(=O)CN=C(c2ccccc2)c2cc(Cl)ccc21` [diazepam], the “nuclei having aggregates” value is reported as “negative”.
With `CN1CCC[C@@H]1CCO[C@](C)(c1ccccc1)c1ccc(Cl)cc1` [clemastine] the “nuclei having aggregates” value was “negative”.
For `CN(C)CCCN1c2ccccc2Sc2ccc(C(F)(F)F)cc21` [triflupromazine], the “nuclei having aggregates” value was “negative”.
With `CNCC[C@H](Oc1cccc2ccccc12)c1cccs1` [duloxetine] the “nuclei having aggregates” value was “reduce the amount of muscle cell nuclei containing PABPN1 aggregates”.
For `COc1ccc(CCN2CCC(Nc3nc4ccccc4n3Cc3ccc(F)cc3)CC2)cc1` [astemizole], the “nuclei having aggregates” value was “reduce the amount of muscle cell nuclei containing PABPN1 aggregates”.
`CC(C)(C)c1ccc(C(=O)CCCN2CCC(OC(c3ccccc3)c3ccccc3)CC2)cc1` [ebastine] was tested, and the “nuclei having aggregates” value was “reduce the amount of muscle cell nuclei containing PABPN1 aggregates”.
For `CSc1ccc2c(c1)N(CCC1CCCCN1C)c1ccccc1S2` (centres unmarked) [thioridazine], the “nuclei having aggregates” value was “reduce the amount of muscle cell nuclei containing PABPN1 aggregates”.
For `CN1CCCC(CC2c3ccccc3Sc3ccccc32)C1` (centres unmarked) [metixene], the “activity compared with guanabenz (positive control)” value was “more active than guanabenz” and the “nuclei having aggregates” value was “reduce the amount of muscle cell nuclei containing PABPN1 aggregates”.

What follows are compounds tested on PFAR (protein folding activity of ribosome) (assay: Inhibition of PFAR in yeast cells (LuxAB luciferase refolding after heat shock)). Conditions: not given.
Assay type: cell-based
For `CN1C(=O)CN=C(c2ccccc2)c2cc(Cl)ccc21` [diazepam], the “inhibition of PFAR” value was “do not inhibit PFAR”.
With `c1ccc(CN(CC2=NCCN2)c2ccccc2)cc1` [antazoline] the “inhibition of PFAR” value was “do not inhibit PFAR”.

The compounds below were run on Drosophila expressing PABPN1-17ala (assay: Drosophila model of OPMD (PABPN1-17ala): abnormal wing position). Conditions: 2 mM in food, day 3 to day 6, chi-squared test.
Assay type: in vivo
Description: The model used is a fruit fly model for OPMD in which the mammalian protein PABPN1 with a repetition of 17 alanines (PABPN1-17a1a) is specifically expressed in the muscles of Drosophila (Chartier et al. 2006; Chartier et al. 2015). These models reproduce the characteristics of the disease, i.e. weakness and progressive muscular degeneration, and also the formation of nuclear PABPN1 aggregates. Thus, the expression of PABPN1-17ala in the indirect wing muscles leads to an abnormal wing posture, resulting from the disorder of the muscle function and degeneration of the muscles (Chartier et al. 2006). […]
The compounds were administered in the food, prepared as follows: an instant Drosophila medium (Carolina Biological Supply Company) was reconstituted in each tube with a 1% solution of yeast in water, supplemented by the compounds dissolved in DMSO with an increasing concentration, or with DMSO alone. […] The effect of the compounds was quantified by the daily measurement of the number of flies presenting an abnormal wing posture, corresponding to the flies expressing PABPN1-17ala, from day 3 to day 6 of the adult age: groups of five males per condition are placed in an empty tube and the number of males having an abnormal wing position is recorded by direct observation of the flies in the tube, without anesthesia.
`CN1CCCC(CC2c3ccccc3Sc3ccccc32)C1` (centres unmarked) [metixene] was tested, and the “number of flies presenting an abnormal wing posture relative to DMSO” value was “significant reduction”.
